“Also recorded” adds a separate entry of the source.
Tests used:
[1] = system: IFN-γ, IL-2, IL-4, IL-5, and TNFα; assay: Cytometric Bead Array of cytokines in supernatants of in vitro re-stimulated spleen cells; assay type: in vivo, mice; conditions: vs β-Gal without additional adjuvant
Procedure: Experimental protocol: Spleens from vaccinated mice were removed and pooled for analysis of cellular immune responses. The protocol for vaccination was identical to the protocol described in Example 2. Cells were grown in RPMI 1640 supplemented with 10% fetal calf serum, 100 U/ml of penicillin, 50 μg/ml of streptomycin, 5×10^−5 M 2-mercaptoethanol and 1 mM L-glutamine (GIBCO BRL, Karlsruhe, Germany) and maintained at 37° C. in a humidified 5% CO2 atmosphere. Spleen cell suspensions were adjusted to 5×10^6 cells/ml in complete medium, cells were seeded with 100 μl per well in a flat-bottomed 96-well microtiter plate (Nunc) and plates were incubated for 4 days in the presence of different concentrations of soluble β-gal.
To characterize the type of Th response stimulated following immunization, the content of IFN-γ, IL-2, IL-4, IL-5, and TNFα was measured in supernatants from in vitro re-stimulated spleen cells (FIG. 6A for s.c. immunization and FIG. 6B for i.n. immunization) by the Cytometric Bead Array. Culture supernatants from proliferating cells were collected on days 2 and 4, and stored at −70° C. […] The probes were analyzed subsequently by flow cytometry as described in the protocol of BD.

β-gal-specific IgA = β-gal-specific IgA in lung and vaginal lavages after i.n. immunization; assay type: in vivo, BALB/c (H-2d) mice; conditions: day 38, vs β-gal alone
Procedure: Experimental protocol: at day 38, mice were sacrificed and the final sampling was performed. Vaginal and lung lavages were obtained by flushing the organs with 1 ml of PBS supplemented with 50 mM EDTA, 0.1% BSA, and 10 mM PMSF. Lavages were then centrifuged to remove debris (10 min at 3000×g), and supernatant fluids were stored at −20° C. To determine the concentration of total IgA present in the lung and vaginal lavages, serial dilutions of the corresponding samples were incubated in microtiter plates that were previously coated with goat anti-mouse IgA (Sigma Chemie), as capture antibodies (100 μl/well). Serial dilutions of purified mouse IgA (Sigma Chemie) were used to generate a standard curve.

P815 target cells = assay: Cr51 release cytotoxicity assay with effector cells of immunized mice; assay type: in vivo; conditions: mice immunized with β-gal/PQS subcutaneously; FIG. 8A; vs non-immunized mice
Procedure: This system is based on the measurement of the Cr51 release of target cells due to specific lysis. In particular, with the amount of radioactivity detectable in the supernatant, the specific lysis can be calculated.
Prior the Cytotoxicity Assay, P815 target cells were split and resuspended and adjusted to 2×10E6 cells/300 μl DMEM. The P815 cells were incubated with an MHC class I β-gal specific peptide for 1.5 h, while slightly agitating the cells every 15 min to improve binding between the peptide and the MHC class I molecule. After washing the cells, cells were resuspended in 150 μl medium without FCS and cultured for 2 h in the presence of 100 μci 51Chrom. Every 30 min, the cell suspension was agitated slightly. Subsequently, cells were washed twice in DMEM plus 10% FCS to remove unbound 51Cr. The cells were adjusted to […]. The effector cells were diluted serially (1×10E6, 0.5×10E6, 0.25×10E6, and 0.125×10E6). 50 μl of the murine target cells (10000 cells) were added to the effector cells, thus, the ratio of effector cells/target cells is 100:1, 50:1, 25:1, and 12.5:1, respectively. […] 25 or 30 μl, supernatant was taken from each of the wells and radioactivity according to standard practice determined. The specific lysis was calculated taking spontaneous lysis and maximal lysis into account.

IL-2 = conditions: cited from earlier work
spleen cells = assay: [3H]thymidine proliferation of spleen cells from vaccinated mice restimulated in vitro with β-gal; assay type: in vivo, BALB/c (H-2d) mice; conditions: day 38, vs β-gal alone
Procedure: Experimental protocol: Spleens were removed and pooled for analysis of cellular immune responses. […] Spleen cell suspensions were adjusted to 5×10^6 cells/ml in complete medium, cells were seeded with 100 μl per well in a flat-bottomed 96-well microtiter plate (Nunc) and plates were incubated for 4 days in the presence of different concentrations of soluble β-gal. That is, T cell mediated immune responses were investigated at day 38 by measuring the proliferation after in vitro restimulation with β-Gal of cells which have been recovered from spleens before. […] Each concentration was tested in quadruplicate. During the final 18 h of culture, 1 μCi of [3H]thymidine (Amersham International, Freiburg, Germany) was added to each well. […] The results are expressed as the arithmetic mean of [^3H]thymidine uptake in cpm.
Thirty eight days following vaccination, spleens cells were purified, re-stimulated in vitro in the presence of various amounts of β-galactosidase and their proliferative capacity was estimated by measuring the incorporation of [3H]thymidine into their DNA using a β-scintillation counter.

[2] = system: spleenocytes stimulated with ConA; conditions: cited from earlier work
[3] = system: β-gal antigen-specific IgG1; assay: Isotyp ELISA of β-gal-specific IgG subclasses in sera of vaccinated mice; assay type: in vivo
Procedure: Isotyp ELISA: 96-well Nunc-Immuno MaxiSorp assay plates (Nunc, Roskilde, Denmark) were coated with 100 μl of β-gal (Boehringer, Mannheim, Germany) at 5 μg/ml in 0.05 M carbonate buffer (pH 9.6) per well. Serial two-fold dilutions of sera or lavages in PBS with 1% BSA and 0.05% Tween 20 were added (100 μl/well), and plates incubated for 2 h at 37° C. After washing, biotin-conjugated rat anti-mouse IgG1 or IgG2a (Pharmingen, Hamburg, Germany) were added to determine IgG subclasses. Plates were incubated for an additional 1 h at 37° C. After four washes, 100 μl of peroxidase-conjugated streptavidin (Pharmingen) was added to cells and plates incubated at 37° C. for 30 min. […] To determine the concentration of IgG subclasses in serum, standard curves were obtained by coating the wells with an isotype-specific goat anti-mouse IgG, and then by incubating with purified mouse IgG1 or IgG2 antibodies (Dianova, Hamburg, Germany).

[4] = system: human peripheral blood mononuclear cells; conditions: stimulated with the lectin ConA; cited from earlier work
TNF-alpha = conditions: cited from earlier work
[5] = system: splenic IFNγ, IL-2 and IL-4 producing cells; assay: ELISPOT of cytokine producing spleen cells from vaccinated mice; assay type: in vivo; conditions: for splenic IL-2 producing cells / splenic IL-4 producing cells: restimulation with β-Gal protein
Procedure: Experimental protocol: Spleens from vaccinated mice were removed and pooled for analysis of cellular immune responses. […] Spleen cell suspensions were adjusted to 5×10^6 cells/ml in complete medium, cells were seeded with 100 μl per well in a flat-bottomed 96-well microtiter plate (Nunc) and plates were incubated for 4 days in the presence of different concentrations of soluble β-gal.
For coating ELISPOT plates, said plates were incubated with 100 μl/well of purified capture antibody (10 μg/ml in coating buffer) at 4° C. overnight. […] The activated cells were seeded at 100 μl per well and incubate at 37° C., in a 5% CO2 humidified incubator for 24 hours or 48 h hours. After 5× washing steps with washing buffer and 1× step with distilled water, 100 μl/well of the biotinylated detection antibody with a concentration of 1 μg/ml in Assay Diluent was added and incubated at room temperature for 2 hrs. After further washing steps 100 μl/well of the AV-HRP at 1/1000 dilution in Assay Diluent was added and incubated at room temperature for 30 minutes. After further washing steps 100 μl/well of AEC Substrate Solution was added and developed at room temperature for 10-60 minutes until visible spots appeared. After washing steps with (3×) with 200 μl/well distilled water, the plates were air-dried and analyzed by counting the spots by an ELISPOT reader. Each concentration was tested in triplicates.

β-gal-specific IgG = assay: β-gal-specific serum IgG ELISA after immunization with β-gal plus adjuvant; assay type: in vivo, BALB/c (H-2d) mice; conditions: 30 μg β-gal + 10 μg adjuvant, vs β-gal alone
Procedure: Experimental protocol: six-eight weeks-old female BALB/c (H-2d) mice were purchased from Harlan Winkelmann GmbH (Borchen, Germany) and treated in accordance with local and European Community guidelines. Groups of 5 mice each were immunized on day 1, 14 and 28 with 30 μg of β-gal (Boehringer, Mannheim, Germany), alone or as an admixture with 10 μg PQS-PEG or with 10 μg PQS (structure of said compounds are shown in FIG. 1). For intranasal (i.n.) immunization, 10 μl were applied to each naris, whereas for the s.c. injection β-gal with or without c-PQS-PEG or PQS, respectively, was resuspended in a volume of 20 μl PBS per animal. Serum samples were collected at day 38 after immunization and stored at −20° C. prior to determination of β-gal-specific antibodies. 96-well Nunc-Immuno MaxiSorp assay plates (Nunc, Roskilde, Denmark) were coated with 100 μl of β-gal (Boehringer, Mannheim, Germany) at 5 μg/ml in 0.05 M carbonate buffer (pH 8.2) per well. Serial two-fold dilutions of sera in PBS with 1% BSA and 0.05% Tween 20 were added (100 μl/well), and plates incubated for 16 h at 37° C. After washing, biotinylated γ-chain-specific goat anti-mouse IgG (Sigma Chemie, Deisenhofen, Germany) was added, and plates were incubated for an additional 1 h at 37° C. After four washes, 100 μl of peroxidase-conjugated streptavidin (Pharmingen) was added to cells and plates incubated at 37° C. for 30 min.

CCCCCCCC1=Nc2ccccc2C(=O)C1O (centres unmarked) [PQS, 2-heptyl-3-hydroxy-4-quinolone]
levels of IL-5 ([1]; i.n. route): significantly higher
levels of IL-5 ([1]; s.c. route): significantly higher
β-gal-specific IgA in lung lavage (β-gal-specific IgA): slight increase
β-gal-specific IgA in vaginal lavage (β-gal-specific IgA): slight increase
specific lysis of peptide-pulsed target cells by β-gal restimulated CD8+ T-cells (P815 target cells): demonstrates the cytotoxic capacity
IL-2 release from PMCs (IL-2; at low doses, stimulated with ConA): no effect
IL-2 secretion (IL-2): inhibited
spleen cell proliferation ([3H]thymidine uptake) after β-gal restimulation (spleen cells; i.n. immunization): efficient adjuvant; also recorded: efficient proliferative response at low amounts of antigen; also recorded: statistically significant increment
spleen cell proliferation ([3H]thymidine uptake) after β-gal restimulation (spleen cells; s.c. immunization): efficient adjuvant; also recorded: further increase in proliferation; also recorded: statistically significant increment
proliferation of spleenocytes [2]: inhibiting activity
antigen-specific antibody response ([3]; i.n. immunization): strong antigen-specific antibody response
antigen specific antibodies of the IgG1 subtype in sera ([3]; intranasal administration, FIG. 5B): strongly increased
expression of the IgG1 isotype in sera ([3]; subcutaneous administration, FIG. 5A): strongly increased
proliferation of human peripheral blood mononuclear cells [4]: proliferation inhibiting activity
TNF-alpha production (TNF-alpha; at high concentrations): enhances
TNF-alpha release from PMCs (TNF-alpha; at low doses, stimulated with LPS): no effect
splenic IL-2 producing cells ([5]; i.n. route): strong expression
splenic IL-4 producing cells ([5]; i.n. route): strong expression
amounts of IFNγ expressing cells ([5]; i.n. vaccination, compared with s.c. vaccination): lower to the level determined after s.c. vaccination
expression of Th1 and Th2 cytokines after restimulation of spleen cells ([5]; intranasal immunization (FIG. 7B)): increased expression
number of splenic IFNγ producing cells ([5]; parenteral (s.c.) vaccination, restimulation with MHC class I-restricted β-Gal peptide (CD8 epitope), FIG. 7A): increment
splenic IL-2 producing cells ([5]; s.c. route): strong expression
splenic IL-4 producing cells ([5]; s.c. route): strong expression
expression of Th1 and Th2 cytokines after restimulation of spleen cells ([5]; subcutaneous immunization (FIG. 7A)): increased expression
β-gal specific IgG titer in sera (β-gal-specific IgG; i.n. immunization day 1, 14, 28, sera day 38): increased expression; also recorded: remarkably increased
β-gal specific IgG titer in sera (β-gal-specific IgG; s.c. (parenteral) immunization day 1, 14, 28): remarkably increased
